The assay has as its system opioid receptors. Nature of the assay: Affinity for opioid receptors. It is filed as binding. The settings on record: unpublished data.

Data on 1 compound can be found in paper PMC2821452 (Synapse (New York, N.Y.), 2010).

Take `CC(=O)O[C@@H]1C[C@H]2C(C)(C)C(=O)C=C[C@]2(C)[C@H]2CC[C@@]3(C)[C@H](c4ccoc4)OC(=O)[C@H]4O[C@]43[C@@]21C` [Gedunin, (1S,3aS,4aR,4bS,5R,6aR,10aR,10bR,12aS)-5-(acetyloxy)-1-(3-furanyl)-1,5,6,6a,7,10a,10b,11,12,12a-decahydro-4b,7,7,10a,12a-pentamethyl-oxireno[c]phenanthro[1,2-d]pyran-3,8(3aH,4bH)-dione]: the “affinity for opioid receptors” value is “no affinity”.
